Assay results reported in PMC9851200, “Multiparameter phenotypic screening for endogenous TFEB and TFE3 translocation identifies novel chemical series modulating lysosome function” (Autophagy, 2022).
Read-outs that look alike come from different tables or passages of the source.

Experiments:
Conditions in all cases: PKIS2 primary screening
endogenous TFE3 = assay: TFE3 nuclear translocation, immunocytochemistry high-content imaging; format: cell-based
endogenous TFEB = assay: TFEB nuclear translocation, immunocytochemistry high-content imaging; format: cell-based
SH-SY5Y cells [1] = tested on: SH-SY5Y cells; also: reference of the scale not given here
SH-SY5Y cells [2] = assay: Nuclear count from microscopy images (cellular growth and toxicity); also: reference of the scale not given here
SH-SY5Y cells [3] = assay: AK (adenylate kinase) release ToxiLight cytotoxicity assay; also: reference of the scale not given here

## O=C(O)C(F)(F)F.O=C(O)C(F)(F)F.O=c1[nH]ccc2nc(N[C@@H]3CCCNC3)nc(Nc3ccc(S(=O)(=O)N4CCOCC4)cc3)c12 [UNC10225269A]
Endogenous TFE3
  TFE3 %: 12.97%
Endogenous TFEB
  TFEB %: 8.33%
SH-SY5Y cells [1]
  DQ Intensity: 101.94
  DQ Spot: 104.22
SH-SY5Y cells [2]
  Nuclear Count: 106.18
SH-SY5Y cells [3]
  AK: 88.07

## Cc1ccc(NC(=O)c2ccnc(N3CCCCC3)c2)cc1-c1ccc(C(=O)NCC2CC2)cc1 [UNC10225036A]
Endogenous TFE3
  TFE3 %: 6.82%
Endogenous TFEB
  TFEB %: 5.85%
SH-SY5Y cells [1]
  DQ Intensity: 84.91
  DQ Spot: 99.52
SH-SY5Y cells [2]
  Nuclear Count: 108.51
SH-SY5Y cells [3]
  AK: 94.08

## Cc1ccc(NC(=O)Nc2cc(C(C)(C)C)nn2-c2ccccc2)cc1 [UNC10225353A]
Endogenous TFE3
  TFE3 %: 7.76%
Endogenous TFEB
  TFEB %: 9.78%
SH-SY5Y cells [1]
  DQ Intensity: 116.80
  DQ Spot: 100.99
SH-SY5Y cells [2]
  Nuclear Count: 116.98
SH-SY5Y cells [3]
  AK: 76.54

## Cl.Cl.NCC(NCc1ccc(-c2ccnc3[nH]ccc23)s1)c1ccccc1 (stereo not drawn) [UNC10225471A]
Endogenous TFE3
  TFE3 %: 13.41%
Endogenous TFEB
  TFEB %: 4.03%
SH-SY5Y cells [1]; DQ Red BSA intensity
  DQ Intensity: 100.58
SH-SY5Y cells [1]; DQ Red BSA spot count
  DQ Spot: 94.95
SH-SY5Y cells [2]
  Nuclear Count: 123.37
SH-SY5Y cells [3]
  AK: 98.53

## CNC(=O)c1ccccc1Nc1nc(Nc2ccc(N3CCOCC3)cc2)ncc1Cl [GSK1576028]
Endogenous TFE3
  TFE3 %: 5.85%
Endogenous TFEB
  TFEB %: 42.50%
SH-SY5Y cells [1]; DQ Red BSA intensity
  DQ Intensity: 165.31
SH-SY5Y cells [1]; DQ Red BSA spot count
  DQ Spot: 111.32
SH-SY5Y cells [2]
  Nuclear Count: 15.51
SH-SY5Y cells [3]
  AK: 149.21

## CSc1cccc2c(-c3ccncn3)c(-c3ccc(F)cc3)nn12 [UNC10225437A]
Endogenous TFE3
  TFE3 %: 10.83%
Endogenous TFEB
  TFEB %: 6.79%
SH-SY5Y cells [1]
  DQ Intensity: 120.45
  DQ Spot: 125.69
SH-SY5Y cells [2]
  Nuclear Count: 89.95
SH-SY5Y cells [3]
  AK: 100.64

## COc1cc2ncn(-c3cc(OCC4CCCO4)c(C(N)=O)s3)c2cc1OC (stereo not drawn) [UNC10225372A]
Endogenous TFE3
  TFE3 %: 10.50%
Endogenous TFEB
  TFEB %: 6.13%
SH-SY5Y cells [1]
  DQ Intensity: 86.61
  DQ Spot: 87.29
SH-SY5Y cells [2]
  Nuclear Count: 102.24
SH-SY5Y cells [3]
  AK: 162.91

## Cc1ccc(NC(=O)c2ccc(Cl)c(Cl)c2)cc1-c1ccc(C(=O)Nc2ccncc2)cc1 [UNC10225151A]
Endogenous TFE3
  TFE3 %: 10.75%
Endogenous TFEB
  TFEB %: 6.14%
SH-SY5Y cells [1]
  DQ Intensity: 92.58
  DQ Spot: 82.55
SH-SY5Y cells [2]
  Nuclear Count: 117.17
SH-SY5Y cells [3]
  AK: 125.83

## Fc1ccc(-c2nc[nH]c2-c2ccncc2)cc1 [UNC10225418A]
Endogenous TFE3
  TFE3 %: 16.61%
Endogenous TFEB
  TFEB %: 7.46%
SH-SY5Y cells [1]; DQ Red BSA intensity
  DQ Intensity: 103.88
SH-SY5Y cells [1]; DQ Red BSA spot count
  DQ Spot: 114.99
SH-SY5Y cells [2]
  Nuclear Count: 56.56
SH-SY5Y cells [3]
  AK: 94.96

## COc1ccc(C)c(Nc2ccnc(Nc3ccc(-c4cnc[nH]4)cc3)n2)c1 [GW784041]
Endogenous TFE3
  TFE3 %: 11.03%
Endogenous TFEB
  TFEB %: 16.17%
SH-SY5Y cells [1]; DQ Red BSA intensity
  DQ Intensity: 109.83
SH-SY5Y cells [1]; DQ Red BSA spot count
  DQ Spot: 101.33
SH-SY5Y cells [2]
  Nuclear Count: 105.20
SH-SY5Y cells [3]
  AK: 81.91

## Cc1ccc(S(=O)(=O)Nc2ccc(Nc3nccc(Nc4cccc5[nH]ncc45)n3)cc2)cc1 [GSK581271]
Endogenous TFE3
  TFE3 %: 6.80%
Endogenous TFEB
  TFEB %: 3.93%
SH-SY5Y cells [1]; DQ Red BSA intensity
  DQ Intensity: 132.42
SH-SY5Y cells [1]; DQ Red BSA spot count
  DQ Spot: 120.36
SH-SY5Y cells [2]
  Nuclear Count: 129.24
SH-SY5Y cells [3]
  AK: 89.43

## Cc1ccc(NC(=O)c2ccnc(N3CCN(C)CC3)c2)cc1-c1ccc(C(=O)NCC2CC2)cc1 [UNC10225009A]
Endogenous TFE3
  TFE3 %: 12.99%
Endogenous TFEB
  TFEB %: 4.01%
SH-SY5Y cells [1]
  DQ Intensity: 132.78
  DQ Spot: 99.28
SH-SY5Y cells [2]
  Nuclear Count: 101.80
SH-SY5Y cells [3]
  AK: 154.31

## CCc1nc(-c2cccc(N(C)S(=O)(=O)c3ccccc3)c2)c(-c2ccnc(Nc3ccc(N4CCN(C(C)=O)CC4)nc3)n2)s1 [UNC10225205A]
Endogenous TFE3
  TFE3 %: 16.25%
Endogenous TFEB
  TFEB %: 7.99%
SH-SY5Y cells [1]
  DQ Intensity: 90.69
  DQ Spot: 101.49
SH-SY5Y cells [2]
  Nuclear Count: 89.51
SH-SY5Y cells [3]
  AK: 111.97

## COc1ccc2cc(-c3nc(-c4ccccc4C(C)C)[nH]c3-c3ccncc3)ccc2c1 [UNC10225291A]
Endogenous TFE3
  TFE3 %: 9.24%
Endogenous TFEB
  TFEB %: 11.56%
SH-SY5Y cells [1]; DQ Red BSA intensity
  DQ Intensity: 102.38
SH-SY5Y cells [1]; DQ Red BSA spot count
  DQ Spot: 102.77
SH-SY5Y cells [2]
  Nuclear Count: 105.82
SH-SY5Y cells [3]
  AK: 85.35

## O=C(Nc1cccc(-c2nn3ccccc3c2-c2ccnc(Nc3cccc(F)c3)n2)c1)c1c(F)ccc(F)c1Cl [UNC10225081A]
Endogenous TFE3
  TFE3 %: 13.17%
Endogenous TFEB
  TFEB %: 11.80%
SH-SY5Y cells [1]
  DQ Intensity: 135.52
  DQ Spot: 127.57
SH-SY5Y cells [2]
  Nuclear Count: 54.18
SH-SY5Y cells [3]
  AK: 69.78

## CN1CCN(Cc2ccc(NC(=O)Nc3ccc(N(C)c4ccnc(Nc5ccc(CS(C)(=O)=O)cc5)n4)cc3)cc2)CC1 [GW827654]
Endogenous TFE3
  TFE3 %: 10.58%
Endogenous TFEB
  TFEB %: 6.08%
SH-SY5Y cells [1]; DQ Red BSA intensity
  DQ Intensity: 92.35
SH-SY5Y cells [1]; DQ Red BSA spot count
  DQ Spot: 93.05
SH-SY5Y cells [2]
  Nuclear Count: 120.62
SH-SY5Y cells [3]
  AK: 74.74

## Nc1nc(N)c2nc(-c3ccccc3)[nH]c2n1 [UNC10225149A]
Endogenous TFE3
  TFE3 %: 9.26%
Endogenous TFEB
  TFEB %: 6.49%
SH-SY5Y cells [1]
  DQ Intensity: 89.50
  DQ Spot: 98.14
SH-SY5Y cells [2]
  Nuclear Count: 98.36
SH-SY5Y cells [3]
  AK: 120.42

## COc1cc(Nc2nccc(N3CCC(NC(=O)Nc4ccc5c(c4)OCO5)C3)n2)cc(OC)c1OC (stereo not drawn) [GSK1379766]
Endogenous TFE3
  TFE3 %: 9.31%
Endogenous TFEB
  TFEB %: 4.47%
SH-SY5Y cells [1]; DQ Red BSA intensity
  DQ Intensity: 63.32
SH-SY5Y cells [1]; DQ Red BSA spot count
  DQ Spot: 78.55
SH-SY5Y cells [2]
  Nuclear Count: 95.41
SH-SY5Y cells [3]
  AK: 118.87
